In patent US8580835B2, “Solid forms of a microbiocide” (Syngenta Crop Protection, LLC, priority 2007, dated 2013):

Assays:
Format in all cases: physicochemical
[1] = thermodynamic stability (DSC, solubility tests and other experiments); settings: compared with modification A
Method: (§1) The resulting change of particle sizes could lead to a change of the stability of the formulated suspension.
Characteristic for modification C is also the thermogram in differential scanning calorimetry (“DSC”) (see FIG. 3). It has an endothermic peak typically in the range from 130° C. to 142° C., but this will depend on purity. For example, crystal modification C in pure form has typically a peak temperature of 141° C. and an endothermic signal typically around 83 J/g. This thermogram is characteristically different from the thermograms of modifications A and B. Modification A has an endothermic peak at about 112° C. and an endothermic signal of 76; modification B has a peak at about 128° C. and a signal of 90 J/g (see PCT/EP2006/00898, FIGS. 5-6). All measurements were carried out on a Metier Toledo 820 DSC in a closed, but not sealed, pan with a heating rate of 10 K/minute. The typical sample quantity is about 5 mg.

water solubility = settings: over relevant temperature ranges; compared with modification A
From the text: as §1

[2] = storage stability in aqueous suspensions and in solid form under humid conditions; settings: aqueous suspensions (such as SC-formulations) and storage in solid form under humid conditions; compared with amorphous material or modification I

Compound	thermodynamic stability [1]	water solubility (water solubility)	storage stability [2]
CC(C)C1C2CCC1c1c(NC(=O)c3cn(C)nc3C(F)F)cccc12 (mixture of isomers) [modification C, racemic syn-3-difluoromethyl-1-methyl-1H-pyrazole-4-carboxylic acid (9-isopropyl-1,2,3,4-tetrahydro-1,4-methano-naphthalen-5-yl)-amide]	substantially better thermodynamic stability than modification A	lower than the water solubility of modification A	–
CC(C)C1C2CCC1c1c(NC(=O)c3cn(C)nc3C(F)F)cccc12 (mixture of isomers) [monohydrate in form A, racemic anti-3-difluoromethyl-1-methyl-1H-pyrazole-4-carboxylic acid (9-isopropyl-1,2,3,4-tetrahydro-1,4-methano-naphthalen-5-yl)-amide]	–	–	much more stable under those circumstances compared with amorphous material or with the modification I
